{
  "source": "patent US8293479B2",
  "about": "“Use of parathyroid hormone-related protein(PTHRP) in the diagnosis and treatment of chronic lung disease and other pathologies” (Los Angeles Biomedical Research Institute at Harbor UCLA …, priority 2002, dated 2012)",
  "key": {"Myofibroblasts (P10s)": {"test_system": "Myofibroblasts (P10s)", "assay": "PGJ2 treatment of P10 myofibroblasts, lipofibroblast marker expression", "format": "cell-based, rat", "conditions": "PGJ2 30 µM, up to 144 hours (FIG. 13)"}, "[1]": {"test_system": "fetal rat lung type II cells", "assay": "Co-culture of fetal rat type II cells with PGJ2-pretreated myofibroblasts, cell count and RT-PCR for Surfactant Protein B", "format": "cell-based", "protocol": "FIGS. 14A and 14B show the effect of lipofibroblasts and myofibroblasts on fetal rat type II cell growth and differentiation. Fetal type II cells were co-cultured with lipofibroblasts, myofibroblasts or myofibroblasts pretreated with PGJ2. Cell growth was determined by cell count and differentiation was determined by RT-PCR for Surfactant Protein B. Note that in the presence of lipofibroblasts or myofibroblasts treated with PGJ2 that type II cells grow (see Figure on left) and differentiate (Figure on right) with time in culture. […] Day 1 v subsequent day in culture, *, p<0.05; **; p<0.01; ***,p<0.0001 by Analysis of Variance.\nIn order to link the process of fibroblast transdifferentiation to alveolarization, we recombined day 19 fetal rat lung type II cells with either P1 lipofibroblasts, P10 myofibroblasts, or P10 myofibroblasts pretreated with PGJ2; PGJ2 induces the transdifferentiation of myofibroblasts to lipofibroblasts (Hu et al. (1995) Proc. Natl. Acad. Sci. USA 92:9856-9860)."}, "[2]": {"test_system": "fetal rat lung fibroblasts (FRLF)", "assay": "PGJ2 treatment of fetal rat lung fibroblasts, spontaneous and hyperoxia-induced lipo-to-myofibroblast transdifferentiation", "format": "cell-based", "conditions": "PGJ2 30 µM", "protocol": "e18 (pre-term) and e21 (near term) fetal rat lung fibroblasts were maintained in DMEM+10% fetal bovine serum in 21% (control) or 95% (experimental) O2+5% CO2 in sealed modular incubator chambers (Billups-Rothenberg, Del Mar, Calif.) kept at 37° C. in standard incubators. Modular incubators were flushed for 3 min at a flow rate of 10 liters/min with either 21 or 95% O2+5% CO2 with remainder of the gas mixture as N2. Modular incubators were then sealed and then put in standard cell culture incubators. When confluent, cells were passaged and allowed to grow in 21% O2 for 24 h. Subsequently, control cells were maintained in 21% O2+5% CO2 and experimental cells in 95% O2+5% CO2 in modular incubators as described above This was continued up to passage 5. Passage 1 and 5 cells were studied for the expression of various lipogenic and myogenic markers by reverse transcriptase-polymerase chain reaction (RT-PCR).\nRT PCR probes used included-Rat Parathyroid Hormone related Protein Receptor (PTHrPR): 5′ CTCTTCTTGACTGTTGTCGCTGGT (SEQ ID NO:14) and 3′[…] […] Rat alpha Smooth Muscle Actin (SMA). RT-PCR was carried out for 2 hours at 37° C. in 50 mM Tris buffer, pH 8.3 containing 75 mM KCl, 3 mM MgCl2 and 10 mM DTT. […] The cDNA is adjusted to equal concentrations as assessed by the PCR of the constitutively expressed gene, GAPDH (rat lung GAPDH). […]"}, "[3]": {"test_system": "E21 fetal rat lung lipofibroblasts", "assay": "PTHrP treatment of serially passaged (P4) transdifferentiating lipofibroblasts, marker expression by competitive RT-PCR", "format": "cell-based", "conditions": "PTHrP 0.5 µM, compared with P1"}, "[4]": {"test_system": "E19 fetal rat lung fibroblasts", "assay": "PTHrP treatment of fetal rat lung fibroblasts, ADRP mRNA by competitive RT-PCR", "format": "cell-based", "conditions": "0.5 µM PTHrP (printed 0.5:M), 15 hours, normalized to GAPDH"}, "d18 FRLFs": {"test_system": "d18 FRLFs", "assay": "Antioxidant pretreatment of FRLFs exposed to hyperoxia, ADRP mRNA expression", "format": "cell-based, rat", "conditions": "95% O2 for 24 h, one hour antioxidant pretreatment", "quoted_text": "RT-PCR was carried out for 2 hours at 37° C. in 50 mM Tris buffer, pH 8.3 containing 75 mM KCl, 3 mM MgCl2 and 10 mM DTT. The total volume of incubation was 20 μl and it contained 0.5 mM each of dNTP, 20 U of RNasin, 25 pmol of oligo(dt) primer and 200 U of Moroney murine leukemia virus reverse transcriptase. […] The cDNA is adjusted to equal concentrations as assessed by the PCR of the constitutively expressed gene, GAPDH (rat lung GAPDH). […]"}},
  "data": [
    {"compound": "CCCCC[C@H](O)/C=C/[C@H]1C(=O)C=C[C@@H]1C/C=C\\CCCC(=O)O", "note": "[PGJ2, prostaglandin J2]", "values": [
      {"measurement": "expression of ADRP by P10 myofibroblasts", "setting": "Myofibroblasts (P10s)", "value": "increased the expression of ADRP"},
      {"measurement": "Surfactant Protein-B expression by type II cells", "setting": "[1]; type II cells co-cultured with PGJ2-treated P10 myofibroblasts", "value": "comparable to that by lipofibroblasts"},
      {"measurement": "type II cell proliferation (cell number)", "setting": "[1]; type II cells co-cultured with PGJ2 pre-treated P10 myofibroblasts, 5 day culture", "value": "comparable to that of primary lipofibroblasts"},
      {"measurement": "hyperoxia induced lipo-to-myofibroblast transdifferentiation", "setting": "[2]; 24 h treatment", "value": "partially blunts"},
      {"measurement": "spontaneous decrease in ADRP mRNA expression", "setting": "[2]; up to 72 h in culture", "value": "attenuated"}
    ]},
    {"compound": "PTHrP: Parathyroid Hormone-related Protein; PTHrP (1-34) and PTHrP (7-34) amide were obtained from Bachem", "values": [
      {"measurement": "alpha SMA expression", "setting": "[3]; P4 lipofibroblasts, 24 hour treatment", "value": "decreased alpha SMA expression down to levels comparable to those observed for P1s"},
      {"measurement": "PTHrP receptor expression (printed in b310 as PTHrP expression)", "setting": "[3]; lipofibroblasts treated at Passage 4 for 24 hours", "value": "increase in PTHrP expression up to a level comparable to that of P1s"},
      {"measurement": "ADRP expression", "setting": "[4]", "value": "inducing ADRP expression"}
    ]},
    {"compound": "superoxide dismutase", "values": [
      {"measurement": "prevention of hyperoxia-induced decrease in ADRP mRNA expression", "setting": "d18 FRLFs", "value": "ineffective"}
    ]}
  ]
}
